Laboratory results taken from patent publication US11180452B2, “Methods and compositions for selectively inhibiting pathogenic microbes” (priority 2019, dated 2021).
Converted amounts (≈) assume the structure as drawn. Read-outs that look alike come from different tables or passages of the source.

Assays:
N. gonorrhoeae = N. gonorrhoeae MIC; assay type: cell-based; settings: Neisseria gonorrhoeae, strain #167
C. albicans = test: Candida albicans MIC / MFC; assay type: cell-based
Bacillus subtilis = Bacillus subtilis MIC / MBC; assay type: cell-based; settings: for MIC: Bacillus subtilis
[1] = system: Francisella tularensis subsp. Holarctica Strain LVSR NR-597; test: microbe, parasite or virus in culture; assay type: cell-based
Bacillus thuringiensis = assay type: cell-based; settings: for MIC: Bacillus thuringiensis
[2] = system: Staphylococcus aureus (SA); test: MIC against pathogen Staphylococcus aureus (Table 1); assay type: cell-based; settings: read-out: Pathogens MIC Staphylococcus aureus (SA)
[3] = MIC with and without 2-ketobutyrate (synergy); assay type: cell-based
[4] = system: Burkholderia thailandensis Brett et al ATCC: 700388; test: microbe, parasite or virus in culture; assay type: cell-based
[5] = system: Francisella tularensis strains; test: microbe, parasite or virus in culture; assay type: cell-based
Trichophyton rubrum = test: MIC against Trichophyton rubrum; assay type: cell-based
Roseomonas mucosa (RM) = test: MIC against skin commensal Roseomonas mucosa; assay type: cell-based; settings: read-out: Skin Commensals MIC Roseomonas mucosa (RM)
HepG2 cells = test: SYTOX assay on HepG2 cells; assay type: cell-based; settings: staining in treated cells
NoSpin HepaRG cells = test: HepaRG cytotoxicity, MTT assay EC50; assay type: cell-based, human; settings: Homo sapiens, HepaRG; cytotoxicity EC50, Table 9
[6] = HepaRG cytotoxicity, MTT assay EC50; assay type: cell-based, human; settings: human, NoSpin HepaRG cells
Candida glabrata = Candida glabrata MIC / MFC; assay type: cell-based; settings: Nakaseomyces glabratus; for MIC: read-out: MIC
[7] = system: Staphylococcus epidermidis (SE); test: MIC against skin commensal Staphylococcus epidermidis; assay type: cell-based; settings: read-out: Skin Commensals MIC Staphylococcus epidermidis (SE)

Compound: Nc1ccccc1Sc1c[nH]c2ccc(Br)cc12 [Compound 174M, 2-((5-bromo-1H-indol-3-yl)thio)aniline]
- MIC (N. gonorrhoeae): 1.56 µg/mL (≈ 4.89 µM)
- MFC (C. albicans; C. albicans strain #761, read-out: MFC): 25 µg/mL (≈ 78.3 µM)
- MIC (C. albicans; C. albicans strain #761, read-out: MIC): 12.5 µg/mL (≈ 39.2 µM)
- MFC (C. albicans; C. albicans strain #762, read-out: MFC): 25 µg/mL (≈ 78.3 µM)
- MIC (C. albicans; C. albicans strain #762, read-out: MIC): 3.13 µg/mL (≈ 9.8 µM)
- MBC (Bacillus subtilis; Bacillus subtilis NRRL: B-571, minimum bactericidal concentration): 10 µg/mL (≈ 31.3 µM)
- MIC (Bacillus subtilis; Bacillus subtilis (Ehrenberg 1835) Cohn 1872 NRRL: B-571, read-out: MIC): 0.63 µg/mL (≈ 1.97 µM)
- MIC (Bacillus subtilis; strain B-571 (Table 4), read-out: Bacillus subtilis MIC): 0.625 µg/mL (≈ 1.96 µM)
- MIC (Bacillus subtilis; strain B-1985, read-out: Bacillus subtilis MIC): 5 µg/mL (≈ 15.7 µM)
- MIC (Bacillus subtilis; strain B-3665, read-out: Bacillus subtilis MIC): 10 µg/mL (≈ 31.3 µM)
- MIC (Bacillus subtilis; strain B-14322, read-out: Bacillus subtilis MIC): 2.5 µg/mL (≈ 7.83 µM)
- MIC (Bacillus subtilis; strain B-41090, read-out: Bacillus subtilis MIC): 5 µg/mL (≈ 15.7 µM)
- MIC (Bacillus subtilis; strain B-41581, read-out: Bacillus subtilis MIC): 5 µg/mL (≈ 15.7 µM)
- MIC (Bacillus subtilis; strain BD-594, read-out: Bacillus subtilis MIC): 5 µg/mL (≈ 15.7 µM)
- MIC [1]: 2.5 µg/mL (≈ 7.83 µM)
- MBC (Bacillus thuringiensis; Bacillus thuringiensis Berliner ATCC: 10792): 5 µg/mL (≈ 15.7 µM)
- MIC (Bacillus thuringiensis; ATCC10792, […]): 0.625 µg/mL (≈ 1.96 µM)
- MIC (Bacillus thuringiensis; Bacillus thuringiensis Berliner ATCC: 10792, read-out: MIC): 1.25 µg/mL (≈ 3.92 µM)
- MIC (Bacillus thuringiensis; strain B-1596): 1.25 µg/mL (≈ 3.92 µM)
- MIC [2]: 2 µg/mL (≈ 6.27 µM)
- synergistic effect with 2-ketobutyrate [3]: synergistic effect
- MIC ([3]; with 200 μg/mL 2-ketobutyrate): 0.781 µg/mL
- MIC ([3]; with 800 μg/mL 2-ketobutyrate): less than 0.39 μg/mL
- MIC ([3]; without ketobutyrate): 3.124 µg/mL
- MBC [4]: > 150 µg/mL
- MIC [4]: 150 µg/mL (≈ 470 µM)
- MIC50 [5]: 4 µg/mL (≈ 12.5 µM)
- MIC ([5]; read-out: F. tularensis BSL-3 MIC, Strain 100): > 8 µg/mL
- MIC ([5]; read-out: F. tularensis BSL-3 MIC, strain HN-63): 4 µg/mL (≈ 12.5 µM)
- MIC ([5]; read-out: F. tularensis BSL-3 MIC, strain LVS): 2 µg/mL (≈ 6.27 µM)
- MIC ([5]; read-out: F. tularensis BSL-3 MIC, strain MA00-2987): 2 µg/mL (≈ 6.27 µM)
- MIC ([5]; read-out: F. tularensis BSL-3 MIC, strain MO #1): 2 µg/mL (≈ 6.27 µM)
- MIC ([5]; read-out: F. tularensis BSL-3 MIC, strain MO #2): 1.67 µg/mL (≈ 5.23 µM)
- MIC ([5]; read-out: F. tularensis BSL-3 MIC, strain MO #3): 4 µg/mL (≈ 12.5 µM)
- MIC ([5]; read-out: F. tularensis BSL-3 MIC, strain OR-96): 4 µg/mL (≈ 12.5 µM)
- MIC ([5]; read-out: F. tularensis BSL-3 MIC, strain SCHU S4): 8 µg/mL (≈ 25.1 µM)
- MIC ([5]; read-out: F. tularensis BSL-3 MIC, strain WY-96): 4 µg/mL (≈ 12.5 µM)
- MIC ([5]; read-out: MAX, highest MIC over the Francisella tularensis strains): > 8 µg/mL
- MIC ([5]; read-out: MIN, lowest MIC over the Francisella tularensis strains): 1.67 µg/mL (≈ 5.23 µM)
- MIC (Trichophyton rubrum; Trichophyton rubrum Castellani Sabouraud ATCC: 28188, read-out: MIC): 0.99 µg/mL (≈ 3.1 µM)
- MIC (Trichophyton rubrum; Trichophyton rubrum, read-out: Pathogens MIC Trichophyton rubrum (TR)): 0.9 µg/mL (≈ 2.82 µM)
- MIC (Roseomonas mucosa (RM)): > 50 µg/mL
- cell membrane damage of HepG2 cells (HepG2 cells): no cell membrane damage
- EC50 (NoSpin HepaRG cells): 26.5 µg/mL (≈ 83 µM)
- EC50 at 48 h [6]: 85 µg/mL (≈ 266 µM)
- MFC (Candida glabrata; C. glabrata strain #325, read-out: MFC): > 50 µg/mL
- MIC (Candida glabrata; C. glabrata strain #325): 25 µg/mL (≈ 78.3 µM)
- MIC (Candida glabrata; C. glabrata strain #584 (Table 7)): 12.5 µg/mL (≈ 39.2 µM)
- MIC (Candida glabrata; Candida glabrata #584 (Table 2)): 12.5 µg/mL (≈ 39.2 µM)
- MIC [7]: 16 µg/mL (≈ 50.1 µM)
